Experimental data published in patent US12637464B2, “Tetracyclic compounds for treating brain disorders” (The Regents of the University of California, priority 2021, dated 2026).

How the values were obtained:
[1] = tested on: dendritic spine density in the PFC; test: In vivo spinogenesis (electron microscopy); set-up: species or system C57BL/6J mice; settings: single dose 1 mg/kg, 24 h after administration, 3 animals per group
Experimental: In Vivo Spinogenesis. Female C57BL/6J mice (Jackson Laboratory, Sacramento, C.A.) were treated with VEH (saline) or (+)-JRT (n=3/group). After 24 h, the animals were sacrificed via transcardial perfusion with oxygenated Ringer's solution followed by a fixative (2% paraformaldehyde, 2.5% glutaraldehyde, 3 mM calcium chloride in 0.1 M cacodylate buffer). Brains were carefully removed from the skull and post-fixed overnight in the same fixative. Brains were then rinsed with PBS and 100 μm coronal sections spanning the prefrontal cortex were collected using a vibrating microtome (Leica). Regions of the infralimbic cortex were microdissected according to the Allen brain atlas and processed further for electron microscopy. Briefly, samples were stained with buffered 1.5% reduced osmium tetroxide for 45 minutes, rinsed thoroughly, further stained with 1% aqueous uranyl acetate overnight at 4° C., dehydrated and embedded in Eponate 12 epoxy resin. A blockface that spanned from the medial cortical surface to the corpus collosum was trimmed and 150-250 serial ultrathin sections (55 nm) were collected onto silicon chips using diamond knives (Diatome) on an ultramicrotome (Leica). Serial sections on silicon chips were loaded into the scanning electron microscope (SEM; Zeiss Sigma VP) for imaging. […] Dendritic spine densities (spines/micron) were calculated for each volume.

C57BL/6J mice [2] = test: 4-odor discrimination and reversal; assay type: in vivo, mouse; settings: 1 mg/kg IP
Experimental: 4-Odor Discrimination and Reversal. A 4-odor discrimination and reversal behavioral assay was performed as described previously with slight modifications. Food restriction was begun five days before the discrimination and reversal tests to reduce animals' body weight to ˜80% of their starting weight. A total of 31 C57BL/6J mice 2-3 months of age were used in this assay. Eleven mice (5 males, 6 females) served as VEH/unstressed controls, 10 animals (4 males, 6 females) as a VEH/stress group, and 10 animals (4 males, 6 females) as a treatment/stress group. Both the VEH/stress and […] groups were subjected to a 7-day unpredictable mild stress protocol using previously validated stressors. Two stressors were delivered during the day, with additional overnight stressors on 4 of the days. […]

serotonin receptors = test: Radioligand binding selectivity panel (Eurofins Discovery); settings: FIG. 3A; binding profile compared to (+)-LSD
C57BL/6J mice [3] = test: Head-twitch response (HTR) assay; assay type: in vivo, mouse
Experimental: Head-Twitch Response Assay. The HTR assay was performed using equal numbers of male and female C57BL/6J mice. The mice were obtained from The Jackson Laboratory (Sacramento, CA) and were approximately 8-12 weeks old at the time of the experiments. After compound administration, animals were placed into an empty arena (40 cm×40 cm) and filmed for 20 min. The arena was cleaned with 70% ethanol between trials. Animals were given a one-week washout period before being tested again. Animals were tested a maximum of 4 times. All drug treatments were randomized and no animal received the same drug and dose twice. For the blocking experiments, animals were administered (+)-JRT (1 mg/kg) or vehicle (saline) via IP injection and placed in an empty cage for 15 min. Animals were then administered LSD (0.2 mg/kg, IP), placed in the test arena, and filmed for 20 min. Videos were scored later by two blinded observers, and the results were averaged (Pearson correlation coefficient>0.9).

For `CCN(CC)C(=O)[C@@H]1C=C2c3cccc4ccn(c34)C[C@H]2N(C)C1` [(+)-JRT], which “dendritic spine density in the PFC” value [1] is on record?
Its value is “increases dendritic spine density”.

What about the stimulus discrimination (C57BL/6J mice [2]; 4-odor discrimination phase, stressed mice) of the same compound?
The stimulus discrimination was “does not impact stimulus discrimination”.

What about the “cognitive deficits induced by unpredictable mild stress (reversal)” value (C57BL/6J mice [2]; reversal phase, after 7-day unpredictable mild stress) of the same compound?
The value was “rescues cognitive deficits induced by unpredictable mild stress”.

What about the “receptor selectivity (binding profile)” value (serotonin receptors) of the same compound?
The value was “highly selective for serotonin receptors”.

And the “HTR induced by LSD (antipsychotic properties)” value (C57BL/6J mice [3]; (+)-JRT 1 mg/kg pretreatment, LSD 0.2 mg/kg)?
Its value is “antagonizing a HTR induced by LSD”.

What about the “hallucinogenic potential (mouse head-twitch response, agonist mode)” value (C57BL/6J mice [3]; male and female mice, agonist mode) of the same compound?
The value was “low hallucinogenic potential”.
